In PubChem BioAssay (NCI):
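Assay format: 96-well plates, 48-hour exposure. GI50 marks 50% less growth. The concentration for full growth arrest is given as TGI.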

Columns and labels:
Assay in all cases: inhibition of tumour cell growth, NCI panel, 48 h
HCT-116 colon = system: HCT-116 colon
UACC-62 melanoma = system: UACC-62 melanoma
A498 renal = system: A498 renal
NCI/ADR-RES ovarian = system: NCI/ADR-RES ovarian
HT29 colon = system: HT29 colon
HOP-92 NSCLC = system: HOP-92 NSCLC
SR leukemia = system: SR leukemia
TK-10 renal = system: TK-10 renal
CCRF-CEM leukemia = system: CCRF-CEM leukemia
COLO 205 colon = system: COLO 205 colon

Molecule | GI50 (HCT-116 colon) | TGI (HCT-116 colon) | GI50 (UACC-62 melanoma) | TGI (UACC-62 melanoma) | GI50 (A498 renal) | TGI (A498 renal) | GI50 (NCI/ADR-RES ovarian) | TGI (NCI/ADR-RES ovarian) | GI50 (HT29 colon) | TGI (HT29 colon) | GI50 (HOP-92 NSCLC) | TGI (HOP-92 NSCLC) | GI50 (SR leukemia) | TGI (SR leukemia) | GI50 (TK-10 renal) | TGI (TK-10 renal) | GI50 (CCRF-CEM leukemia) | TGI (CCRF-CEM leukemia) | GI50 (COLO 205 colon) | TGI (COLO 205 colon)
O=C(/C=C/c1ccco1)c1ccc(Nc2nc(Nc3ccc(F)cc3)nc(Nc3ccc(F)cc3)n2)cc1 | 21 µM | > 100 µM | > 100 µM | > 100 µM | 7.28 µM | > 100 µM | 15.1 µM | 52.1 µM | 18.1 µM | > 100 µM | 4.17 µM | 41.6 µM | 2.37 µM | 5.84 µM | 48.4 µM | > 100 µM | 19 µM | > 100 µM | 7.04 µM | 26.1 µM
Cc1c(Cl)cccc1NC(=O)c1sc2nc3c(cc2c1N)CCCC3 | 0.425 µM | > 100 µM | 0.6 µM | > 100 µM | 0.413 µM | > 100 µM | 0.396 µM | > 100 µM | 0.369 µM | > 100 µM | 0.994 µM | > 100 µM | 0.315 µM | > 100 µM | > 100 µM | > 100 µM | 0.447 µM | > 100 µM | 0.719 µM | > 100 µM
O=S(=O)(O)SCCNCCCCCC1CCCCC1 | – | 10.2 µM | – | 4.22 µM | – | 40.6 µM | – | 41.3 µM | – | 19.1 µM | – | 39.9 µM | – | > 33.3 µM | – | 20.7 µM | – | > 100 µM | – | 30.3 µM
O=C(O)CCc1nc(-c2ccccc2-n2cccc2)no1 | – | > 100 µM | – | > 100 µM | – | > 100 µM | – | > 100 µM | – | > 100 µM | – | > 100 µM | – | > 100 µM | – | > 100 µM | – | – | – | > 100 µM
O=Cc1ccc(N2CCN(c3ccc(C=O)cc3)CC2)cc1 | 71.5 µM | > 100 µM | 9.36 µM | > 100 µM | – | – | > 100 µM | > 100 µM | > 100 µM | > 100 µM | > 100 µM | > 100 µM | > 100 µM | > 100 µM | 4.13 µM | 76.8 µM | > 100 µM | > 100 µM | > 100 µM | > 100 µM
CCCOC(=O)C1C2CCC(O2)C1C(=O)O (stereo unspecified) | – | > 100 µM | – | > 100 µM | – | > 100 µM | – | > 100 µM | – | > 100 µM | – | – | – | > 100 µM | – | > 100 µM | – | > 100 µM | – | > 100 µM
Nc1ccn(C2OC(C(OC3OC(CO)C(O)C(N)C3O)C(O)C(O)C(O)C(O)CO)C(N)C(O)C2O)c(=O)n1 (stereo unspecified) | – | > 100 µM | – | > 100 µM | – | > 100 µM | – | > 100 µM | – | > 100 µM | – | 24.6 µM | – | > 100 µM | – | > 100 µM | – | > 100 µM | – | > 100 µM
COc1ccc2c(c1)/C(=N/OC(C)=O)c1c-2cnc2ccccc12 | 21 µM | 48.1 µM | 16.6 µM | 36.3 µM | 29.3 µM | 82 µM | 36.9 µM | > 100 µM | 43.1 µM | > 100 µM | 18.3 µM | 37.2 µM | 13.8 µM | 38 µM | 20.4 µM | 54.8 µM | 28.5 µM | > 100 µM | 26.5 µM | 94.7 µM
O=C1/C(=C\c2ccccc2)C2OCC=C3CN4CCC56c7ccccc7N1C5C2C3CC46 (stereo unspecified) | 6 µM | > 100 µM | 1.83 µM | 4.06 µM | 3.56 µM | 48 µM | > 100 µM | > 100 µM | 2.07 µM | 5.37 µM | 6.27 µM | 86.8 µM | 2.65 µM | 8.76 µM | 7.23 µM | 73.3 µM | 6.06 µM | > 100 µM | 17.3 µM | > 100 µM
NC(=O)c1ccc(N(C(N)=O)c2c(F)cccc2F)nc1-c1ccc(F)cc1F | > 100 µM | > 100 µM | > 100 µM | > 100 µM | > 45.4 µM | > 100 µM | > 100 µM | > 100 µM | > 100 µM | > 100 µM | 28 µM | > 100 µM | > 100 µM | > 100 µM | > 100 µM | > 100 µM | > 100 µM | > 100 µM | > 100 µM | > 100 µM
O=C(Nc1cccc(C(F)(F)F)c1)c1cc2ccccc2cc1O | 1.15 µM | 10.1 µM | 0.835 µM | > 46.1 µM | 0.919 µM | 7.4 µM | 2.17 µM | 9.34 µM | 3.33 µM | > 55.5 µM | 0.252 µM | 1.61 µM | 0.533 µM | 12.3 µM | 3.97 µM | > 41.4 µM | 3.67 µM | > 100 µM | 1.9 µM | 4.6 µM
Nc1nc(N)c2c(n1)NC(c1sc(Cl)nc1Cl)CC(c1ccc3c(c1)OCO3)=N2 (stereo unspecified) | 3.42 µM | 16.2 µM | 2.17 µM | 18.9 µM | 2.3 µM | 12 µM | 3.55 µM | 25.3 µM | – | – | 4.25 µM | 23.8 µM | 1.9 µM | 16.6 µM | 15 µM | 44.2 µM | 3.02 µM | 27 µM | 3.48 µM | 12.7 µM
CNC(c1ccncc1)C(NC)c1ccncc1 (stereo unspecified) | – | > 100 µM | – | > 100 µM | – | > 100 µM | – | > 100 µM | – | > 100 µM | – | – | – | > 100 µM | – | > 100 µM | – | > 100 µM | – | > 100 µM
H-QIYKKYRTWYRKAWKVLGKV-NH2 | 10.8 µM | 77.1 µM | 2.08 µM | 4.74 µM | – | – | 4.81 µM | > 100 µM | 20.8 µM | > 100 µM | 1.95 µM | 4.81 µM | 3.58 µM | > 100 µM | 6.35 µM | 29.8 µM | 4.14 µM | > 100 µM | 4.3 µM | 80.7 µM
